Reference: patent US5968910A, “Compositions containing two or three inhibitors of different HIV reverse transcriptases” (priority 1994, dated 1999)
Where two headings read alike, the source gives them in different places.

Legend:
HIV-1/B 101Glu = assay: Sensitivity of mutant HIV-1 strain in CEM cell cultures; format: cell-based; conditions: Table 5
Method in brief: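 Syncytium formation read out after 4 days at 37° C. Cultures: CEM cells, 250,000/ml, infected at 100 50% cell culture infective doses/ml and added to compound dilutions.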

HIV-1 = assay: Breakthrough of mutant HIV-1 strains in CEM cell cultures, single drugs and double/triple combinations; format: cell-based
Experimental: The culture medium consisted of RPMI 1640 containing 10% fetal bovine serum, 2 mM L-glutamine, and 0.075% NaHCO3. The multiplicity of the initial infection was ~1000 times the CCID50 (50% cell culture infective dose). Passages were performed every 3 to 4 days by adding 0.5 to 1.0 ml of the infected culture supernatant to 5 ml of a suspension containing 4×10^5 uninfected CEM cells per ml. Syncytium formation was used as a parameter of virus breakthrough in the cell cultures. In the drug combination experiments, the compounds were combined at the same initial concentrations as used for the two lowest concentrations in the single-drug experiments.
Compound IV, BHAP and TSAO-m^3 T were added to HIV-1-infected CEM cell cultures at 0.04, 0.10 and 0.25 ug/ml (Compound IV and BHAP) or 1.0, 2.5 and 5.0 μg/ml (TSAO-m^3 T). In addition, various double- and triple-drug combinations of Compound IV, BHAP and TSAO-m^3 T were performed, combining these inhibitors at their lowest (0.04 μg/ml) or intermediary (0.1 μg/ml) concentration as used in the single-drug experiments.

## Cc1occc1C(=S)Nc1ccc(Cl)c(C=NOC(C)(C)C)c1 [Compound I]
HIV-1/B 101Glu; Human immunodeficiency virus 1, CCRF-CEM, read-out: EC50
  EC50: ≥ 1 µg/mL

## Cc1cn([C@@H]2O[C@H](CO[Si](C)(C)C(C)(C)C)[C@@]3(OS(=O)(=O)C=C3N)[C@H]2O[Si](C)(C)C(C)(C)C)c(=O)n(C)c1=O [TSAO-m^3 T]
HIV-1/B 101Glu
  EC50: > 2.5 µg/mL
HIV-1; single drug 1.0 μg/ml, day 4 post infection
  HIV-1-induced syncytium formation in CEM cells: 0 percentage of control
HIV-1; single drug 1.0 μg/ml, day 7 post infection
  HIV-1-induced syncytium formation in CEM cells: 0 percentage of control
HIV-1; single drug 1.0 μg/ml, day 11 post infection
  HIV-1-induced syncytium formation in CEM cells: 0 percentage of control
HIV-1; single drug 1.0 μg/ml, day 14 post infection
  HIV-1-induced syncytium formation in CEM cells: 12.5 percentage of control
HIV-1; single drug 1.0 μg/ml, day 18 post infection
  HIV-1-induced syncytium formation in CEM cells: 75 percentage of control
HIV-1; single drug 1.0 μg/ml, day 21 post infection
  HIV-1-induced syncytium formation in CEM cells: 100 percentage of control
HIV-1; single drug 1.0 μg/ml, day 25 post infection
  HIV-1-induced syncytium formation in CEM cells: 100 percentage of control
HIV-1; single drug 1.0 μg/ml, day 28 post infection
  HIV-1-induced syncytium formation in CEM cells: 100 percentage of control
HIV-1; single drug 1.0 μg/ml, day 32 post infection
  HIV-1-induced syncytium formation in CEM cells: 100 percentage of control
HIV-1; single drug 1.0 μg/ml, day 35 post infection
  HIV-1-induced syncytium formation in CEM cells: 100 percentage of control
HIV-1; single drug 1.0 μg/ml, day 39 post infection
  HIV-1-induced syncytium formation in CEM cells: 100 percentage of control
HIV-1; single drug 1.0 μg/ml, day 42 post infection
  HIV-1-induced syncytium formation in CEM cells: 100 percentage of control
HIV-1; single drug 1.0 μg/ml, day 46 post infection
  HIV-1-induced syncytium formation in CEM cells: 100 percentage of control
HIV-1; single drug 1.0 μg/ml, day 49 post infection
  HIV-1-induced syncytium formation in CEM cells: 100 percentage of control
HIV-1; single drug 1.0 μg/ml, day 53 post infection
  HIV-1-induced syncytium formation in CEM cells: 100 percentage of control
HIV-1; single drug 1.0 μg/ml, day 56 post infection
  HIV-1-induced syncytium formation in CEM cells: 100 percentage of control
HIV-1; single drug 1.0 μg/ml, day 60 post infection
  HIV-1-induced syncytium formation in CEM cells: 100 percentage of control
HIV-1; single drug 1.0 μg/ml, day 64 post infection
  HIV-1-induced syncytium formation in CEM cells: 100 percentage of control
HIV-1; single drug 1.0 μg/ml, day 67 post infection
  HIV-1-induced syncytium formation in CEM cells: 100 percentage of control
HIV-1; single drug 1.0 μg/ml, day 71 post infection
  HIV-1-induced syncytium formation in CEM cells: 100 percentage of control
HIV-1; single drug 1.0 μg/ml, day 74 post infection
  HIV-1-induced syncytium formation in CEM cells: 100 percentage of control
HIV-1; single drug 1.0 μg/ml, day 77 post infection
  HIV-1-induced syncytium formation in CEM cells: 100 percentage of control
HIV-1; single drug 2.5 μg/ml, day 4 post infection
  HIV-1-induced syncytium formation in CEM cells: 0 percentage of control
HIV-1; single drug 2.5 μg/ml, day 7 post infection
  HIV-1-induced syncytium formation in CEM cells: 0 percentage of control
HIV-1; single drug 2.5 μg/ml, day 11 post infection
  HIV-1-induced syncytium formation in CEM cells: 0 percentage of control
HIV-1; single drug 2.5 μg/ml, day 14 post infection
  HIV-1-induced syncytium formation in CEM cells: 12.5 percentage of control
HIV-1; single drug 2.5 μg/ml, day 18 post infection
  HIV-1-induced syncytium formation in CEM cells: 75 percentage of control
HIV-1; single drug 2.5 μg/ml, day 21 post infection
  HIV-1-induced syncytium formation in CEM cells: 100 percentage of control
HIV-1; single drug 2.5 μg/ml, day 25 post infection
  HIV-1-induced syncytium formation in CEM cells: 100 percentage of control
HIV-1; single drug 2.5 μg/ml, day 28 post infection
  HIV-1-induced syncytium formation in CEM cells: 100 percentage of control
HIV-1; single drug 2.5 μg/ml, day 32 post infection
  HIV-1-induced syncytium formation in CEM cells: 100 percentage of control
HIV-1; single drug 2.5 μg/ml, day 35 post infection
  HIV-1-induced syncytium formation in CEM cells: 100 percentage of control
HIV-1; single drug 2.5 μg/ml, day 39 post infection
  HIV-1-induced syncytium formation in CEM cells: 100 percentage of control
HIV-1; single drug 2.5 μg/ml, day 42 post infection
  HIV-1-induced syncytium formation in CEM cells: 100 percentage of control
HIV-1; single drug 2.5 μg/ml, day 46 post infection
  HIV-1-induced syncytium formation in CEM cells: 100 percentage of control
HIV-1; single drug 2.5 μg/ml, day 49 post infection
  HIV-1-induced syncytium formation in CEM cells: 100 percentage of control
HIV-1; single drug 2.5 μg/ml, day 53 post infection
  HIV-1-induced syncytium formation in CEM cells: 100 percentage of control
HIV-1; single drug 2.5 μg/ml, day 56 post infection
  HIV-1-induced syncytium formation in CEM cells: 100 percentage of control
HIV-1; single drug 2.5 μg/ml, day 60 post infection
  HIV-1-induced syncytium formation in CEM cells: 100 percentage of control
HIV-1; single drug 2.5 μg/ml, day 64 post infection
  HIV-1-induced syncytium formation in CEM cells: 100 percentage of control
HIV-1; single drug 2.5 μg/ml, day 67 post infection
  HIV-1-induced syncytium formation in CEM cells: 100 percentage of control
HIV-1; single drug 2.5 μg/ml, day 71 post infection
  HIV-1-induced syncytium formation in CEM cells: 100 percentage of control
HIV-1; single drug 2.5 μg/ml, day 74 post infection
  HIV-1-induced syncytium formation in CEM cells: 100 percentage of control
HIV-1; single drug 2.5 μg/ml, day 77 post infection
  HIV-1-induced syncytium formation in CEM cells: 100 percentage of control
HIV-1; single drug 5.0 μg/ml, day 4 post infection
  HIV-1-induced syncytium formation in CEM cells: 0 percentage of control
HIV-1; single drug 5.0 μg/ml, day 7 post infection
  HIV-1-induced syncytium formation in CEM cells: 0 percentage of control
HIV-1; single drug 5.0 μg/ml, day 11 post infection
  HIV-1-induced syncytium formation in CEM cells: 0 percentage of control
HIV-1; single drug 5.0 μg/ml, day 14 post infection
  HIV-1-induced syncytium formation in CEM cells: 12.5 percentage of control
HIV-1; single drug 5.0 μg/ml, day 18 post infection
  HIV-1-induced syncytium formation in CEM cells: 75 percentage of control
HIV-1; single drug 5.0 μg/ml, day 21 post infection
  HIV-1-induced syncytium formation in CEM cells: 100 percentage of control
HIV-1; single drug 5.0 μg/ml, day 25 post infection
  HIV-1-induced syncytium formation in CEM cells: 100 percentage of control
HIV-1; single drug 5.0 μg/ml, day 28 post infection
  HIV-1-induced syncytium formation in CEM cells: 100 percentage of control
HIV-1; single drug 5.0 μg/ml, day 32 post infection
  HIV-1-induced syncytium formation in CEM cells: 100 percentage of control
HIV-1; single drug 5.0 μg/ml, day 35 post infection
  HIV-1-induced syncytium formation in CEM cells: 100 percentage of control
HIV-1; single drug 5.0 μg/ml, day 39 post infection
  HIV-1-induced syncytium formation in CEM cells: 100 percentage of control
HIV-1; single drug 5.0 μg/ml, day 42 post infection
  HIV-1-induced syncytium formation in CEM cells: 100 percentage of control
HIV-1; single drug 5.0 μg/ml, day 46 post infection
  HIV-1-induced syncytium formation in CEM cells: 100 percentage of control
HIV-1; single drug 5.0 μg/ml, day 49 post infection
  HIV-1-induced syncytium formation in CEM cells: 100 percentage of control
HIV-1; single drug 5.0 μg/ml, day 53 post infection
  HIV-1-induced syncytium formation in CEM cells: 100 percentage of control
HIV-1; single drug 5.0 μg/ml, day 56 post infection
  HIV-1-induced syncytium formation in CEM cells: 100 percentage of control
HIV-1; single drug 5.0 μg/ml, day 60 post infection
  HIV-1-induced syncytium formation in CEM cells: 100 percentage of control
HIV-1; single drug 5.0 μg/ml, day 64 post infection
  HIV-1-induced syncytium formation in CEM cells: 100 percentage of control
HIV-1; single drug 5.0 μg/ml, day 67 post infection
  HIV-1-induced syncytium formation in CEM cells: 100 percentage of control
HIV-1; single drug 5.0 μg/ml, day 71 post infection
  HIV-1-induced syncytium formation in CEM cells: 100 percentage of control
HIV-1; single drug 5.0 μg/ml, day 74 post infection
  HIV-1-induced syncytium formation in CEM cells: 100 percentage of control
HIV-1; single drug 5.0 μg/ml, day 77 post infection
  HIV-1-induced syncytium formation in CEM cells: 100 percentage of control
HIV-1; single drug, higher concentrations
  virus breakthrough delayed till day: 14 days
